pIC50: −log10 of the molar value.
Key:
[1] = Mouse Activity and Screen Test Procedure (MAST): screen test; format: in vivo, Swiss-Webster male mice; conditions: IP
Source text: The compounds of the invention are new chemical substances which are useful as pharmaceutical agents for the treatment of psychoses. The antipsychotic activity of representative compounds of the invention was established by the Mouse Activity and Screen Test Procedure (MAST) described below. Animals Nine unfasted Swiss-Webster male mice weighing 20-30 g are equally divided into three groups for each drug dose to be tested. That is, data for each dose level was generated by three separate groups of three mice each. Drugs A minimum of three dose levels (10, 30, and 100 mg/kg) are tested for each drug. Treatments are administered intraperitoneally one hour prior to testing. All dosages are calculated as parent compound and given in volumes of 10 ml/kg. Compounds are dissolved or suspended in 0.2% Methocel. Control animals are injected with Methocel. Testing A two part testing procedure is started one hour postinjection. First, the screen test (ST) is performed (see Pharmac. Biochem. Behav. 6, 351-353, 1977). Briefly this test consists of placing mice on individual wire screens which are then rotated 180 degrees at the start of a 60 second observation period. The number of mice falling off the inverted screen is recorded. Data The data obtained from the screen test are expressed as percent of mice falling off the screen. Data derived from locomotor activity of drug treated mice are compared to the activity of vehicle treated animals and are expressed as percent inhibition of spontaneous locomotion. All percentages reported for inhibition of locomotion (LI) are based upon data accumulated for one hour. Both phases of testing are graded: A=60-100%; C=31-59%; and N=0-30%. An overall dose rating is obtained by the following criteria: […]

adenosine A1 receptor = molecular target: T1, adenosine A1 receptor (Rattus norvegicus, UniProt P25099); assay: Adenosine Receptor Binding--A1 Receptor Affinity (RBA1), [3H]-CHA, whole brain membranes; conditions: read-out: RBA-1 IC50
T1 construct: Whole brain minus cerebellum and brainstem from male Long-Evans rats; from tissue; host or cells: whole brain minus cerebellum and brainstem, male Long-Evans rats
T1 sequence (P25099 1-326): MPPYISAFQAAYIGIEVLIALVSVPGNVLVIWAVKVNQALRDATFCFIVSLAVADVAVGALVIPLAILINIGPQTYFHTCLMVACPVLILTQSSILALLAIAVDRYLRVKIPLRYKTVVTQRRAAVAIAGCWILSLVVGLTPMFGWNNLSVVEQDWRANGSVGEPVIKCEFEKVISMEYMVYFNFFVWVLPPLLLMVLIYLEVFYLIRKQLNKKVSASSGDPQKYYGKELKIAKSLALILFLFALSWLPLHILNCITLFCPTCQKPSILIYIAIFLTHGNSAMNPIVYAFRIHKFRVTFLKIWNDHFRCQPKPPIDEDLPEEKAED
Method: Adenosine Receptor Binding--A1 Receptor Affinity (RBA1 )
Whole brain minus cerebellum and brainstem from male Long-Evans rats (150-200 g) was homogenized in 30 volumes of ice-cold 0.05M Tris-HCl buffer pH 7.7 using a Brinkman Polytron PT-10, (setting number 6 for 20 seconds) and centrifuged for ten minutes at 20,000 xg (Sorvall RC-2), 4° C. The supernatant was discarded, and the pellet was resuspended and centrifuged as before. The pellet was resuspended in 20 ml Tris-HCl buffer containing two International Units/ml of adenosine deaminase (Sigma type III from calf intestinal mucosa), incubated at 37° C. for 30 minutes, then subsequently at 0° C. for ten minutes. The homogenate was again centrifuged, and the final pellet was resuspended in ice-cold 0.05M Tris-HCl buffer pH 7.7 to a concentration of 20 mg/ml original wet tissue weight and used immediately.
Tissue homogenate (10 mg/ml) was incubated in 0.05M Tris-HCl buffer pH 7.7 containing 1.0 nM [^3 H]--N^6 -cyclohexyladenosine ([^3 H]--CHA) with or without test agents in triplicate for one hour at 25° C. Incubation volume was 2 ml. Unbound [^3 H]--CHA was separated by rapid filtration under reduced pressure through Whatman glass fiber (GF/B) filters. The filters were rinsed three times with 5 ml of ice cold 0.05M Tris-HCl buffer pH 7.7. The radio-labeled ligand retained on the filter was measured by liquid scintillation spectrophotometry after shaking the filters for one hour or longer on a mechanical shaker in 10 ml of Beckman Ready-Solv HP scintillation cocktail.
Nonspecific binding was defined as the binding which occurred in the presence of 1 mM theophylline. The concentration of test agent which inhibited 50% of the specific binding (IC50) was determined by nonlinear computer curve fit. The Scatchard plot was calculated by linear regression of the line obtained by plotting the amount of radioligand bound (pmoles/gram of tissue) [formula] Since the amount of radioligand bound was a small fraction of the total amount added, free radioligand was defined as the concentration of (nM) of radioligand added to the incubation mixture. The Hill coefficient was calculated by linear regression of the line obtained by plotting the log of the bound radioligand vs the log of the [formula] The maximal number of binding sites (Bmax) was calculated from the Scatchard plot.

Compound | Inhibition of screen test failure ([1]; 0.3 mg/kg) [%] | Inhibition of screen test failure ([1]; 1.0 mg/kg) [%] | Inhibition of screen test failure ([1]; 3 mg/kg) [%] | Inhibition of screen test failure ([1]; 10 mg/kg) [%] | Inhibition of screen test failure ([1]; 30 mg/kg) [%] | Inhibition of screen test failure ([1]; 100 mg/kg) [%] | pIC50 (adenosine A1 receptor) | Inhibition of screen test failure ([1]; 0.03 mg/kg) [%] | Inhibition of screen test failure ([1]; 0.1 mg/kg) [%]
OC[C@H]1O[C@@H](n2cnc3c(NCC4(c5ccccc5)CC4)ncnc32)[C@H](O)[C@@H]1O [Example 1, N6-((1-Phenylcyclopropyl)methyl)adenosine] | 11 | 0 | 0 | 0 | 22 | 44 | 7.55 | – | –
O[C@@H]1[C@H](O)[C@@H](CCl)O[C@H]1n1cnc2c(NCC3(c4ccccc4)CC3)ncnc21 [Example 5, 5'-Deoxy-5'-chloro-N6-((1-phenylcyclopropyl)methyl)adenosine] | – | – | 11 | 0 | 0 | – | 7.28 | – | –
O[C@@H]1[C@H](O)[C@@H](CCl)O[C@H]1n1cnc2c(NCC3(c4cccs4)CC3)ncnc21 [Example 6, 5'-Chloro-5'-deoxy-N6-((1-thien-2-ylcyclopropyl)methyl)adenosine] | – | – | 0 | 0 | 0 | – | 7.74 | – | –
OC[C@H]1O[C@@H](n2cnc3c(NCC4(c5ccccc5)CCCC4)ncnc32)[C@H](O)[C@@H]1O [Example 10, N6-((1-Phenylcyclopentyl)methyl)adenosine] | – | – | 11 | 0 | 22 | – | 6.96 | – | –
OC[C@H]1O[C@@H](n2cnc3c(NCC4(c5ccccc5)CCCCC4)ncnc32)[C@H](O)[C@@H]1O [Example 11, N6-((1-Phenylcyclohexyl)methyl)adenosine] | – | – | 11 | 0 | 0 | – | 6.39 | – | –

More lines, in order of rising pIC50 (adenosine A1 receptor), values ahead:

Inhibition of screen test failure ([1]; 0.3 mg/kg) [%] | Inhibition of screen test failure ([1]; 1.0 mg/kg) [%] | Inhibition of screen test failure ([1]; 3 mg/kg) [%] | Inhibition of screen test failure ([1]; 10 mg/kg) [%] | Inhibition of screen test failure ([1]; 30 mg/kg) [%] | Inhibition of screen test failure ([1]; 100 mg/kg) [%] | pIC50 (adenosine A1 receptor) | Inhibition of screen test failure ([1]; 0.03 mg/kg) [%] | Inhibition of screen test failure ([1]; 0.1 mg/kg) [%] | Compound
– | – | 0 | 0 | 0 | – | 7.15 | – | – | OC[C@H]1O[C@@H](n2cnc3c(NCC4(c5ccc(Cl)cc5)CC4)ncnc32)[C@H](O)[C@@H]1O [Example 12, N6-((1-(4-Chlorophenyl)cyclopropyl)methyl)adenosine]
– | – | 11 | 0 | 0 | – | 7.49 | – | – | OC[C@H]1O[C@@H](n2cnc3c(NCC4(c5cccc(Cl)c5)CC4)ncnc32)[C@H](O)[C@@H]1O [Example 2, N6-((1-(3-Chlorophenyl)cyclopropyl)methyl)adenosine]
– | – | 0 | 0 | 0 | – | 7.51 | – | – | OC[C@H]1O[C@@H](n2cnc3c(NCC4(c5cccc(Cl)c5)CCC4)ncnc32)[C@H](O)[C@@H]1O [Example 8, N6-((1-(3-Chlorophenyl)cyclobutyl)methyl)adenosine]
– | 0 | 0 | 0 | – | – | 7.80 | – | – | OC[C@H]1O[C@@H](n2cnc3c(NCC4(c5ccccc5)CCC4)ncnc32)[C@H](O)[C@@H]1O [Example 7, N6-((1-Phenylcyclobutyl)methyl)adenosine]
0 | 0 | 0 | 0 | – | – | 8.14 | 0 | 0 | OC[C@H]1O[C@@H](n2cnc3c(NCC4(c5cccs5)CC4)ncnc32)[C@H](O)[C@@H]1O [Example 3, N6-((1-Thien-2-ylcyclopropyl)methyl)adenosine]
– | – | 0 | 0 | 0 | – | 8.25 | – | – | OC[C@H]1O[C@@H](n2cnc3c(NCC4(c5cccs5)CCC4)ncnc32)[C@H](O)[C@@H]1O [Example 9, N6-((1-Thien-2-ylcyclobutyl)methyl)adenosine]

Source: US4755594A, “N^6 -substituted adenosines” (Warner-Lambert Company, priority 1986, dated 1988)
